Molecules are shown by their SMILES.

The melting point is the temperature of the solid-liquid transition. Consider `NC(=O)CNS(=O)(=O)c1ccc(Br)c(C(=O)O)c1`, for which the melting point was 226 to 228 °C. For `COC(=O)c1sc2nc(C)nc(Cl)c2c1C` the value was 149 to 151 °C; for `Cn1cc(C(=O)CBr)cn1`, 116 to 118 °C; for `O=C(O)C=Cc1cncc2ccccc12`, 260 to 262 °C. As for `Cc1nc2cc(C(F)(F)F)ccc2s1`, the melting point fell in the range of 63 to 65 °C. To `COc1ccccc1-c1ccc(C(C)=O)cc1` belongs 107 to 109 °C; to `NCc1ccc(NC(=O)CN2CCc3ccccc32)cc1`, 126 to 128 °C. In turn, `O=C(O)CCCCc1cccc(O)c1` registered a melting point of 115 to 117 °C. In turn, `CCOC(=O)c1ncoc1-c1scnc1C` had a melting point of 78 to 80 °C.

`ClCc1noc(C2(c3ccccc3)CCOCC2)n1`: the melting point was in the range of 74 to 76 °C. To `O=C(CO)N1CCc2ccccc21` belongs 147 to 149 °C; to `O=Cc1ccc(OCc2cccc(F)c2)cc1`, 45 to 47 °C.

Consider `O=C(O)CCn1cnc2cc(F)c(F)cc21`, for which the melting point is 157 to 159 °C.

On to `Fc1ccc(COc2cccc(N3CCNCC3)c2)cc1`, for which the melting point lay in the range of 84 to 86 °C. For `OCc1nc(-c2ccccc2)cs1`, the melting point was 87 to 89 °C. On to `Nc1ccccc1CN1CCc2ccccc21`, for which the melting point was in the range of 75 to 77 °C. In the case of `Cc1cc(OCC(N)=O)ccc1N`, the melting point was 137 to 139 °C.

`CC1CNC(=O)CC(C)C1` (stereo not drawn) showed a melting point of 122 to 124 °C. For `COc1cc(C#N)ccc1CBr` the value was 89 to 91 °C. With `CC(=O)c1cncnc1`, the melting point was in the range of 63 to 65 °C.

As for `O=C(O)c1nn(-c2ccc(F)cc2F)cc1O`, the melting point was 203 to 205 °C. In the case of `COc1ccc2cncnc2c1`, the melting point is 83 to 85 °C.

`CCC(CC)(CNC(=O)OC(C)(C)C)C(=O)O` returned a melting point of 130 to 132 °C.

On to `O=C(O)c1ccc(F)c(COCC2CC2)c1`, for which the melting point was 69 to 71 °C. With `CCC(C)NS(=O)(=O)c1ccc(C(=O)O)cc1` (stereo not drawn), the melting point fell in the range of 219 to 221 °C. Compound `Cc1cc(C(=O)O)cc(S(C)(=O)=O)c1F` returned a melting point of 229 to 231 °C. In the case of `CC(C)c1ccc(N2Cc3ccc(N)cc3C2)cc1`, the melting point lay within 164 to 166 °C. On to `CC(C)(C)OC(=O)C(C#N)c1ccc([N+](=O)[O-])cn1` (stereo not drawn), for which the melting point lay within 168 to 170 °C.

`O=C1COc2cc(OCc3ccccc3)ccc21` gave a melting point of 99 to 101 °C. On to `CCOC(=O)CNCC(N)=O`, for which the melting point is 70 to 72 °C.

The compound `OCc1c(Cl)ccc2cccnc12` returned a melting point of 93 to 95 °C. On to `COc1cc(C(C)=O)cc(O)c1OC`, for which the melting point was in the range of 59 to 61 °C. With `CCCOc1cc(C=O)ccc1OC`, the melting point was in the range of 35 to 37 °C.

Take `CC(O)c1cnc(-c2ccc(Br)cc2)s1` (stereo not drawn): the melting point lay within 77 to 79 °C. On to `N#CC1(N)CCN(Cc2ccccc2)CC1`, for which the melting point is 67 to 69 °C. The compound `Cn1c(=O)[nH]c2ccccc2c1=O` showed a melting point of 242 to 244 °C. As for `O=C(O)CCC(=O)N1CCN(S(=O)(=O)c2ccccc2)CC1`, the melting point was 155 to 157 °C. Turning to `CC(C)Cc1ccc(C(=O)CCC(=O)O)cc1`, the melting point lay within 113 to 115 °C. The compound `O=C1NCc2ccc(F)cc21` gave a melting point of 203 to 205 °C. `CC(C)CNC(=O)NC(=O)CCl` gave a melting point of 105 to 107 °C. `CCOC(=O)c1ccn2nc3ncccc3c2n1` came in with a melting point of 209 to 211 °C. `Cc1cccc([N+](=O)[O-])c1F` returned a melting point of 19 to 21 °C. `COc1ccc(CC(N)=NO)cc1` yielded a melting point of 109 to 111 °C.

As for `CNC(=O)NN`, the melting point is 103 to 105 °C. Consider `N#Cc1cc(C(F)(F)F)ccc1S(=O)(=O)Cl`, for which the melting point fell in the range of 87 to 89 °C. The compound `O=C1COc2ccc(C(F)(F)F)cc2N1` came in with a melting point of 165 to 167 °C. For `O=c1[nH]c(-c2cccc(Br)c2)no1`, the melting point lay in the range of 198 to 200 °C. `Oc1cccc2cn[nH]c12` returned a melting point of 181 to 183 °C. The compound `CC(C)(C)c1ccc(C(=O)O)cc1[N+](=O)[O-]` registered a melting point of 156 to 158 °C. Compound `CC(=O)Nc1ccc(S(=O)(=O)N(C)CC(=O)O)cc1` registered a melting point of 225 to 227 °C. The compound `CN(C)C(=O)Cc1ccccc1N` displayed a melting point of 69 to 71 °C. In turn, `NC(=O)c1ccc(N)cc1Cl` gave a melting point of 163 to 165 °C.

The compound `O=C(O)c1noc(-c2cc(F)ccc2F)n1` displayed a melting point of 119 to 121 °C. Regarding `CCOC(=O)Cn1c(=O)[nH]c2cc(Br)cnc21`, the melting point was 206 to 208 °C. The compound `NC(=O)[C@H]1CCCC[C@H]1C(=O)O` had a melting point of 169 to 171 °C. In the case of `Cc1c(C(=O)O)cccc1S(N)(=O)=O`, the melting point was in the range of 218 to 220 °C. To `NC(=S)Cc1nnc2n1CCCCC2` belongs 227 to 229 °C; to `COCCn1c(S)nc2cc(Cl)ccc21`, 195 to 197 °C.

`Cc1cnn(-c2ccc(N)cc2F)c1` gave a melting point of 57 to 59 °C.

`NNC(=O)C1CC1`: the melting point was in the range of 92 to 94 °C. Take `O=C(O)c1cccc(OCc2cccnc2)c1`: the melting point lay in the range of 195 to 197 °C.

As to `CN(C)CCN1CC(C(=O)O)CC1=O` (stereo not drawn), the melting point lay in the range of 162 to 164 °C. `NNC(=O)Cn1ccc(C(F)(F)F)n1`: the melting point is 157 to 159 °C. `Nc1cc(C(F)(F)F)ccc1NCc1ccccc1`: the melting point was in the range of 70 to 75 °C. `Clc1ccc2cccc(Br)c2n1` came in with a melting point of 112 to 114 °C. For the compound `CC(C)(C)C1CCCCC(=O)N1` (stereo not drawn), the melting point was in the range of 126 to 128 °C. `CS(=O)(=O)Nc1cccc(CC(=O)O)c1` displayed a melting point of 156 to 158 °C. The compound `Cc1sc(N)nc1-c1ccc2c(c1)CCCO2` came in with a melting point of 209 to 211 °C. `CCC(C)c1csc(NC)n1` (stereo not drawn) showed a melting point of 49 to 51 °C.

Regarding `Cc1n[nH]cc1N`, the melting point was in the range of 93 to 95 °C. `O=C(O)c1c(O)cc(Cl)cc1Cl`: the melting point is 189 to 191 °C.

As for `Cc1ccc(S(=O)(=O)NCCCC(=O)O)cc1`, the melting point was in the range of 138 to 140 °C. For `COc1ccc(C=C(CC(=O)O)c2nc3ccccc3s2)cc1` the value was 154 to 156 °C; for `O=C(O)CSc1nc2cc(-c3ccccc3)sc2c(=O)n1Cc1ccccc1`, 320 to 322 °C. In the case of `CN(C1CCCCC1)S(=O)(=O)c1ccc(C(=O)O)cc1`, the melting point was in the range of 213 to 215 °C.

Take `CCOC(=O)c1c(N)sc2c1CCN(CC)C2`: the melting point was 83 to 87 °C. On to `CC(C#N)Oc1cc(F)ccc1N` (stereo not drawn), for which the melting point was 89 to 91 °C.

In turn, `CN(C)C(=O)c1ccc(C=O)[nH]1` registered a melting point of 165 to 167 °C. `Cn1c(CC(=O)NN)nc2ccccc21` came in with a melting point of 206 to 208 °C. In turn, `NNc1ncnc2nc[nH]c12` returned a melting point of 235 to 237 °C. Regarding `O=C(O)c1cccc(Nc2ccccc2)c1`, the melting point is 129 to 131 °C.

For `CCOC(=O)C1CCN(S(=O)(=O)Cl)CC1`, the melting point was 38 to 40 °C. Consider `CCS(=O)(=O)Nc1nc2ccc(N)cc2s1`, for which the melting point lay within 217 to 219 °C. As for `O=C(O)c1ccnc(OCc2ccccc2)c1`, the melting point lay within 171 to 173 °C. `Cc1cccc2ncc(C=O)n12` registered a melting point of 128 to 130 °C. `O=Cc1cnn2ccccc12` yielded a melting point of 82 to 84 °C.

Regarding `N#Cc1ccc(-c2nc(CCl)co2)cc1`, the melting point fell in the range of 132 to 134 °C. To `O=C(O)c1ccc2[nH]c(-c3ccc(Cl)cc3)nc2c1` belongs 319 to 321 °C.

The values above are taken from a melting point compilation (Tetko et al.).
